According to patent USRE38424E1 (The United States of America as represented by the …, priority 1994, dated 2004):
Read-outs that look alike come from different tables or passages of the source.

Legend:
[1] = in vivo
Protocol: Patients with histologically proven epithelial ovarian cancer with bidimensionally measurable disease were candidates for the study.
All patients received subsequent cycles of therapy on the general medical oncology in-patient ward.
A G-CSF dose of 10 μg/kg/day was used. […] This was determined by checking WBC and platelet counts on a twice weekly basis.
All toxicities were graded according to the NCI-CTEP criteria, with the exception of peripheral neuropathy which was graded as described previously herein.
Dose limiting toxicity (DLT) was defined as any of the following criteria occurring in two of three patients treated at a given dose level: (1) reversible non-hematologic toxicity of at least grade 3; (2) irreversible non-hematologic toxicity of at least grade 2; or (3) the persistence of a nadir with an absolute granulocyte count of less than 500 cells/mm^3 or platelet count of less than 25,000/mm^3 for five days or more.

[2] = From the text: A total of 47 patients were included in this study. All patients had recurrent advanced stage epithelial ovarian cancer confirmed on histologic review at the Laboratory of Pathology, National Cancer Institute (NCI). Borderline, mixed, and germ cell histologies were excluded.
Pretreatment evaluation consisted of a physical examination, laboratory studies with CA-125, radiographic evaluation by CT scan, baseline electromyogram with nerve conduction velocity studies (EMG/NCV), creatinine clearance, chest radiograph, and EKG. On-study staging was completed within two weeks of starting therapy. Physical examination and laboratory evaluations were repeated with every cycle, except for CBC which was evaluated twice weekly. Patients underwent restaging every two cycles (i.e., every 6 weeks), which included the repetition of any radiographic studies that were abnormal upon entry. EMG/NCV studies were repeated as indicated to determine the presence of any progressive neurologic toxicity.
The G-CSF was supplied to the Division of Cancer Treatment by Amgen, Inc. (Thousand Oaks, Calif.). This G-CSF administration continued until the absolute granulocyte count of the patient was greater than 1500/μl for two consecutive days after the nadir (i.e., the total count for the two days was at least 3000/μl ) or until the total white blood cell count was greater than 30,000/μl. Patients with responding disease or stable disease continued on the study and were reevaluated at two cycle intervals.
Patients manifesting second or third degree heart block had remaining cycles given in the intensive care unit with appropriate interventions. Antiemetics were given as needed.
More specifically, this was undertaken by increasing the dose of G-CSF administered on the next treatment cycle.
The particulars pertaining to the flexible G-CSF dosage regimen are as follows. […] The dose of G-CSF was reduced by 5 μg/kg/day if severe bone pain occurred at these higher G-CSF dosage levels, i.e., at levels greater than or equal to 10 μg/kg/day.

[3] = female, human, in vivo, 1 cycle
[4] = female, human, in vivo, 21 days (per cycle)

CC(=O)O[C@H]1C(=O)[C@@]2(C)[C@H]([C@H](OC(=O)c3ccccc3)[C@]3(O)C[C@H](OC(=O)[C@H](O)[C@@H](NC(=O)c4ccccc4)c4ccccc4)C(C)=C1C3(C)C)[C@]1(OC(C)=O)CO[C@@H]1C[C@@H]2O [Taxol, taxol]
Dose at which dose limiting toxicity (DLT) was reached ([1]; female, human): 300 mg/m2/21 days | Duration of granulocytopenia occurring in spite of G-CSF support ([1]; female, human): less than 5 days | Persistence of neurologic symptoms beyond the peak ([1]; female, human): 1 to 2 weeks | Persistence of symptoms of grade 3 neuropathy ([1]; female, human): up to 6 months | Time of nadir heart rate into therapy, range ([1]; female, human): 1 to 21 h | Mean nadir heart rate (±SEM) ([1]; female, human, 1 cycle): 60±11 bpm | Nadir heart rate, range ([1]; female, human, 1 cycle): 46-84 bpm | Number of individuals whose heart rate fell below 60 bpm ([1]; female, human, 1 cycle): 10 | Mean nadir heart rate ([1]; female, human, 2 cycle): 61±8 bpm | Nadir heart rate, range ([1]; female, human, 2 cycle): 46-75 bpm | Number of individuals whose heart rate fell below 60 bpm ([1]; female, human, 2 cycle): 6 | Alopecia and grade 1 to 2 myalgias observed [1]: all patients | Patients in whom mucositis was observed [1]: two | Patients with peripheral neuropathy of grade 3 [1]: three | Alopecia, Grade 1 & 2 ([2]; female, human, in vivo): 38 No. (%) | Bone Pain, Grade 3 & 4 ([2]; female, human, in vivo): 3 (6) No. (%) | Cardiac toxicity, Grade 1 & 2 ([2]; female, human, in vivo): 35 (74) No. (%) | Constitutional toxicity, Grade 1 & 2 ([2]; female, human, in vivo): 43 No. (%) | Constitutional toxicity, Grade 3 & 4 ([2]; female, human, in vivo): 4 (9) No. (%) | Diarrhea, Grade 1 & 2 ([2]; female, human, in vivo): 29 No. (%) | Diarrhea, Grade 3 & 4 ([2]; female, human, in vivo): 2 (4) No. (%) | Hematologic toxicity, Anemia, Grade 1 & 2 ([2]; female, human, in vivo): 17 (47) No. (%) | Hematologic toxicity, Anemia, Grade 3 & 4 ([2]; female, human, in vivo): 30 (47) No. (%) | Hematologic toxicity, Granulocytes, Grade 1 & 2 ([2]; female, human, in vivo): 1 (2) No. (%) | Hematologic toxicity, Granulocytes, Grade 3 & 4 ([2]; female, human, in vivo): 46 (98) No. (%) | Hematologic toxicity, Platelets, Grade 1 & 2 ([2]; female, human, in vivo): 24 (51) No. (%) | Hematologic toxicity, Platelets, Grade 3 & 4 ([2]; female, human, in vivo): 19 (40) No. (%) | Hypersensitivity Reactions, Grade 1 & 2 ([2]; female, human, in vivo): 31 (66) No. (%) | Hypersensitivity Reactions, Grade 3 & 4 ([2]; female, human, in vivo): 2 (4) No. (%) | Median time of neutrophil nadir ([2]; female, human, in vivo): 7 days | Mucositis, Grade 1 & 2 ([2]; female, human, in vivo): 31 (66) No. (%) | Mucositis, Grade 3 & 4 ([2]; female, human, in vivo): 3 (6) No. (%) | Myalgias, Grade 1 & 2 ([2]; female, human, in vivo): 43 No. (%) | Neurologic toxicity, Grade 1 & 2 ([2]; female, human, in vivo): 36 (77) No. (%) | Neurologic toxicity, Grade 3 & 4 ([2]; female, human, in vivo): 3 (6) No. (%) | Patients who continued at the starting dosage combination throughout therapy ([2]; female, human, in vivo): 45% | Patients who continued on that dose combination ([2]; female, human, in vivo): 12 patients | Patients who required red blood cell transfusions ([2]; female, human, in vivo): 55% | Patients with Mobitz I block ([2]; female, human, in vivo): 4% | Patients with Mobitz II block ([2]; female, human, in vivo): 4% | Patients with dose reduction for taxol-induced peripheral neuropathy ([2]; female, human, in vivo): 3 patients | Patients with first degree atrioventricular block ([2]; female, human, in vivo): 4% | Patients with grade 3 and 4 hematologic toxicities ([2]; female, human, in vivo): 98% | Patients with mild ototoxicity ([2]; female, human, in vivo): 11% | Patients with myalgias and arthralgias (grades 1 and 2) ([2]; female, human, in vivo): less than 50% | Time of neutrophil nadir, range ([2]; female, human, in vivo): 5 to 11 days | Vomiting, Grade 1 & 2 ([2]; female, human, in vivo): 23 No. (%) | Median nadir heart rate [2, 3]: 52 bpm | Nadir heart rate, range [2, 3]: 38-59 bpm | Patients with asymptomatic sinus bradycardia [2, 3]: 34% | Cycles associated with neutropenia [2, 4]: 24% | Cycles complicated by fever and neutropenia [2, 4]: 10% | Episodes of complete heart block ([2]; in vivo): No episodes | Patients with hypersensitivity reactions ([2]; in vivo): Two | Patients with rapid atrial fibrillation requiring digitalization ([2]; in vivo): one | Patients with supraventricular tachycardia ([2]; in vivo): two | Treatment related death due to polymicrobial sepsis ([2]; one of 47 patients): 2%
